Results published in patent US4551460A, “Pyrido[2,1-b]quinazoline derivatives useful as agents for treatment of allergic conditions and vascular disorders involving thrombosis” (priority 1983, dated 1985).
Where two headings read alike, the source gives them in different places.

Key:
[1] = tested on: acetylcholine-induced constriction in guinea pig ilea; assay: Antagonism of acetylcholine-induced constriction in guinea pig ilea; conditions: 5.0×10^-7 M acetylcholine; read-out: IC50 antagonism of acetylcholine-induced constrictions
Procedure: (e) Antagonism of Acetylcholine-induced Constriction in Guinea Pig Ilea
Anticholinergic activity was determined on a segment of guinea pig ileum that was suspended in a 37° C. bath of oxygenated Tyrodes solution. At 4 minute intervals, the ileum was challenged with 5.0×10^-7 M acetylcholine for sufficient time to produce a peak contraction and then washed with fresh Tyrodes solution. After the tissue response to acetylcholine had stablized, the ileum was pretreated with the standard anticholinergic, atropine sulfate, for 1 minute prior to rechallenge with acetylcholine, the contraction recorded and the tissue washed with Tyrodes solution. […] The IC50 for atropine was 1×10^-8 M. THe IC50 's for test drugs were determined by this same procedure.

[2] = tested on: leukotriene E (LTE) induced skin wheal formation in rat skin; assay: LTE-induced skin wheal formation in rat; type: in vivo; conditions: rat skin wheal, read-out: ID50 (the source's name)
Procedure: (a) Methodology for LTE-induced Skin Wheal Formation in Rat. The ability of a drug to inhibit leukotriene E (LTE) induced skin wheal formation in rat skin is measured. In this model system a dose of LTE which gives a maximal wheal response, is injected (in 0.05 ml of saline) intradermally into anesthetized rats which have been pretreated for 30 minutes with 50 mg/kg of pyrilamine maleate and 4 mg/kg of methyl […] maleate (both administered intraperitoneally). The animal is then immediately treated with test drug (at 10 mg/kg, i.v.) followed by an intravenous injection of Evans blue (0.5%) into the tail vein of the animal. Thirty minutes later the animals are sacrificed and the increase in capillary permeability induced by LTE is reflected by the migration of dye into the injection point in the skin (the response being quantitated by the size, in mm, of the dye spot in the skin). The average response in 5 animals (4 intradermal injections of LTE per animal) treated with the test compound is compared with the response elicited in a similar group of animals which were not treated with the drug. For oral studies, the test animals are pretreated two hours prior to intradermal injection of LTE.

[3] = tested on: histamine-induced constriction in guinea pig ilea; assay: Antagonism of histamine-induced constriction in guinea pig ilea; conditions: 1×10^-7 M histamine
Procedure: (f) Antagonism of Histamine-induced Constriction in Guinea Pig Ilea
Antihistaminic activity was determined on a segment of guinea pig ileum that was suspended in a 37° C. bath of oxygenated Tyrodes solution. At 4 minute intervals, the ileum was challenged with 1×10^-7 M histamine for sufficient time to produce a peak contraction and then washed with fresh Tyrodes solution. After the tissue response to histamine had stabilized, the ileum was pretreated with the standard antihistaminic compound, pyrilamine maleate, for 1 minute prior to rechallenge with histamine, the contraction recorded, and the tissue washed with Tyrodes solution. […] By the IC50 for pyrilamine maleate in the test system was 1×10^-8 M. IC50 's for test drugs were determined by this same procedure.

[4] = tested on: leukotriene E induced bronchoconstriction; assay: Guinea pig bronchoconstriction, in vivo (aerosol); design: species or system guinea pig (Hartly strain); conditions: aerosol at concentration inhibiting bronchoconstriction by 80%
Procedure: (c) Guinea Pig Bronchoconstriction, In Vivo (Aerosol):
Male guinea pigs (Hartly strain) weighing 300 to 500 g are anesthetized with urethane (2 g/kg) intraperitoneally and a polyethylene cannula is inserted into the jugular vein for drug administration. Tracheal pressure is recorded from a cannula inserted in the trachea and connected to a Statham pressure transducer. After surgical preparation of the animals, a period of time is allowed for pulmonary functions to stabilize. The test compound is administered according to the following protocol. Propranolol (0.1 mg/kg) is administered intravenously while the animals breathed spontaneously. Five minutes thereafter, the animals are exposed for a five minute period to a 1% (w/v) aerosol solution of test compound (adjusted to an alkaline pH where necessary for drug solubilization) or to distilled water of the appropriate pH (for control purposes). A Monaghan (Model 750) ultrasonic nebulizer is used to administer all test compounds by inhalation. The nebulizer ultrasonic frequency is adjusted to produce particles in the 1-8μ diameter range (average 3μ). Aqueous solutions are prepared fresh and introduced into the chamber of the nebulizer. The output of the nebulizer is made available to the animal by directing a bias flow of aerosol through a y tube connected to the tracheal cannula. At the end of the exposure period, the animals are paralyzed with succinylcholine (1.2 mg/kg, i.v.) and mechanically respirated (Harvard rodent respirator) at 40 breaths/minute and 2.5 cc tidal volume. Animals are then challenged with a maximum constrictory dose of leukotriene E delivered intravenously 30 seconds after administration of the succinylcholine.
The change (cm H2 O) between pre and peak ventilatory pressure readings is averaged for three control animals and five drug treated animals. The percent inhibition is calculated from the following formula:
(Control-Drug Tested/Control)×100
When various drug concentrations are tested, the percent inhibition at each concentration is plotted as log concentration (abscissa) versus percent inhibition (ordinate) and the IC50 is determined from linear regression analysis.
In order to determine the aerosol half-life (t 1/2), the animals are prepared as described above, except that the time between aerosol exposure and challenge with leukotriene E is varied. All compounds are administered at the concentration necessary to inhibit leukotriene-induced bronchoconstriction by 80%. Biological half-life is calculated from plots of time (abscissa) versus log percent inhibition (ordinate).

Question: What does the source list for `CC(C)c1ccc2nc3ccc(C(=O)NCCCCn4ccnc4)cn3c(=O)c2c1` [Compound A, N-[4-(1H-imidazol-1-yl)butyl]-2-(1-methylethyl)-11-oxo-11H-pyrido[2,1-b]quinazoline-8-carboxamide]?
Answer: IC50 [1]: 5 µM; ED50 ([2]; iv): 30 mg/kg; ED50 ([2]; po): 46 mg/kg; IC50 [3]: 1 µM; Biological half-life [4]: 56 min

Question: For `CC(C)c1ccc2nc3ccc(C(=O)NCCCCc4cccnc4)cn3c(=O)c2c1` [Compound B, 2-(1-methylethyl)-N-[4-(3-pyridyl)butyl]-11-oxo-11H-pyrido[2,1-b]quinazoline-8-carboxamide], which IC50 [1] is on record?
Answer: 7 µM

Question: What about the ED50 ([2]; iv) of the same compound?
Answer: 15 mg/kg

Question: And the ED50 ([2]; po)?
Answer: 70 mg/kg

Question: What about the IC50 [3] of the same compound?
Answer: 2 µM

Question: What about the Biological half-life [4] of the same compound?
Answer: 7 min
